The test has as its system Notch1. The test can be described thus: Notch1 transcripts in MuSCs isolated from treated mdx mice. The class given is in vivo. Particulars: MuSCs isolated from mdx mice treated with TSA. The method, then:
Animals were used at the specified age and treated for the indicated periods with daily intra peritoneal injections of Trichostatin A, TSA (0.6 mg/kg/day; #T8552, Sigma), dissolved in phospate-saline solution or in phospate-saline alone as vehicle control (CTR). Muscle injury was performed by intramuscular injection in Tibliais Anterior (TA) of Cardiotoxin—CTX− (10 μM, 10 mg/mL) (#L8102, Lotaxan Valence, France, http://www.latoxan.com), 3 days before mice sacrifice.
For RNA-sequencing sample preparation, MuSCs and FAPs were freshly isolated by FACS from 6 C57BI6 mdx male mice 8-weeks old treated or not with TSA for 15 days. RNA was collected using Trizol) reagent (#T9424, Sigma). About 100 ng/μL of total RNA was sent in duplicate to IGA (Istituto di Genomica Applicata, Udine) for RNA sequencing using Illumina TruSeq Stranded Total RNA kit Ribo-Zero GOLD on Illumina Hiseq2500 platform.
To investigate this hypothesis, we evaluated the effect of FAP-derived exosomes from HDACi-treated or control-treated mdx mice on MuSCs within single fibres isolated from WT mice. Freshly isolated single muscle fibres from tibialis anterior, extensor digitorum longus, gastrocnemius and soleus of C57BL6J mice were incubated with FAP-derived exosomes or whole conditioned media, and their effect on MuSCs was evaluated by monitoring the expression of Pax7, MyoD and DNA synthesis (EdU incorporation). […]

Take `CC(/C=C/C(=O)NO)=C\[C@@H](C)C(=O)c1ccc(N(C)C)cc1` [TSA, Trichostatin A]: the Notch1 transcripts result is on record as “reduced”.

These data come from patent US20210268030A1, “FIBROADIPOGENIC PROGENITOR-DERIVED EXOSOMES FOR REGENERATION OF DYSTROPHIC MUSCLES” (EXOFIX S.R.L., priority 2018, published 2021).
